Results reported in US20250179057A1, “MEK IMMUNE ONCOLOGY INHIBITORS AND THERAPEUTIC USES THEREOF” (Immuneering Corporation, priority 2022, published 2025).
Blank lines part the entries; values can stand above or below the compound they belong to.

Legend:
[1] = Guo et al Lancet Oncol. 2020; cited from earlier work
[2] = biological target: CYP2C19 (Homo sapiens, UniProt P33261); test: in vitro; details: pooled liver microsomes, pH 7.4, probe mephenytoin
[3] = PAMPA (pH 7.4); format: in vitro ADME; details: pH = 7.4
Protocol: Each stock solution was diluted to 50 M in pH 7.4 Prisma HT buffer (pION) and 200 μl was added to each well of the donor plate in triplicate. The polyvinylidene fluoride (PVDF, 0.45 μm) filter membrane on the acceptor plate was coated with 5 μl gastrointestinal tract lipid formulation (GIT-0, pION) and to each well of the acceptor plate, 200 μl of acceptor sink buffer (pION) was added. The acceptor filter plate was then carefully placed on top of the donor plate to form a sandwich. The sandwich was incubated at 25° C. for 4 h without stirring. UV-vis spectra of the solutions in the blank, reference, acceptor and donor plates were measured using a microplate reader (Tecan Infinite 200PRO M Nano Plus). Permeability values were calculated using the PAMPA explorer software v.

[4] = eLogD (lipophilicity; pH 7.4) by HPLC; format: physicochemical
Protocol: Test compounds were dissolved in DMSO at a concentration of 10 mM and further diluted with methanol:water 1:1. Samples were analyzed using gradient HPLC with three different isocratic mobile phases of 0.25% octanol in methanol (60, 65 and 70%) and 20 mM MOPS buffer (pH 7.4) with decylamine. If needed, (for low E log Doct compounds) the isocratic mobile phases were adjusted to e.g. 40, 45 and 50% methanol. Peaks were detected using a diode array at absorbance 220-320 nm.
Capacity factors data (k′_=(tr−_t0)/t0) obtained at various amounts of methanol were extrapolated to 0% methanol and k′w values are determined using a linear procedure. E log Doct (7.4) is calculated using a series of reference standards with known Log D values. Each experiment was performed in triplicate.

[5] = system: phospho-MEK in A549 cells; test: Cell-based pMEK (pMEK:tMEK, CRAF bypass) in A549 cells; details: 2 h, pMEK to total MEK normalized to DMSO control
In short: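 Cells (A549 or A375) exposed 2 h to compounds at varying concentrations in duplicate, then lysed; lysates set to 1.5 mg/mL for pMEK by quantitative Western (Jess). Phospho-MEK/total MEK ratio normalized to DMSO control.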

[6] = Human liver microsome stability (t1/2, Clint); details: 1 μM; 0.5 mg/ml microsomal protein
[7] = Mouse liver microsome stability (t1/2, Clint); details: 1 μM; 0.5 mg/ml microsomal protein
[8] = system: phospho-ERK in A549 (KRAS G12S) cells; test: Cell-based pERK (pERK:tERK) in A549 cells
In short: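 A549 cells in 6-well plates were treated with compound at a predetermined concentration for 2 hours at 37 °C. Lysates were then normalised by Bradford protein assay to 1 mg/mL for pERK. Phospho-ERK and total ERK were detected by Western blot with IRDye secondary antibodies and quantified by LI-COR Odyssey imaging.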

[9] = Kinetic solubility (PBS pH 7.4; 4 hr); format: physicochemical; details: PBS pH = 7.4; 4 hr (Table 8)
Protocol: The plates were shaken for 4 h at room temperature in an Eppendorf Thermomixer. After incubation, the plates were centrifuged for 20 minutes at 4680 rpm. From the supernatant, 150 μL was transferred to a new 96 well plate and 50 μL DMSO was added to ensure continued dissolution. Samples were measured on LC-UV at injection volumes of 1 and 8 μL. Peak areas were determined and compared to peak areas obtained using calibration curves of the test compounds in DMSO.

[10] = Plasma stability, beagle dog plasma (K2EDTA); format: in vitro ADME
Protocol: (§1) Individual stock solutions of propantheline and lovastatin were prepared at 10 mM in DMSO and were further diluted to 2 mM with DMSO.
(§2) Frozen matrices (Balb/c mouse, Wistar Han rat, Beagle dog, and human plasma containing K2EDTA as anti-coagulant) were thawed and centrifuged at 3100 rpm for 10 minutes at 4° C. to remove particulates. The lipid layer was then removed, and the supernatant was transferred to a new tube without disturbing the pellet. After the matrices were incubated at 37° C. for at least 10 minutes, the pH of each matrix was adjusted to pH 7.4, using 10% phosphoric acid or 1N sodium hydroxide as necessary. Test and control article stock solutions were spiked (2 μL) into matrix (1.998 mL) and mixed to final assay concentration of […]. Duplicate 30-μL aliquots of spiked plasma were transferred to matrix tubes in 96-well plate immediately after spiking for timepoints of 0, 30, 60, 120, 240, and 360 minutes. These tubes were then incubated at 37° C. with shaking and at each timepoint, the corresponding tubes containing samples were quenched with 180 μL of cold acetonitrile containing the internal standards. The quenched samples were vortex-mixed briefly and stored refrigerated. After the final time point (360 minutes), the plates with all quenched samples were vortex-mixed for 10 minutes and then centrifuged at 3100 rpm for 10 minutes at 4° C. to sediment the precipitated protein. The supernatant (50 μL) was transferred to a clean 96-well plate and diluted with 100 μL of water. The plates were stored refrigerated until analysis.
(§3) Data Analysis: Peak area ratios for IS-normalized test article and control article counts were used to calculate the percent remaining relative to the time zero (T0) value. As appropriate, results were plotted and further analyzed to calculate half-life (T1/2) values.
(§4) Mean peak area ratios were used to calculate the % remaining relative to the T0 value:
(§5) In this study, human, cynomolgus monkey, beagle dog, wistar hannover rat, and balb/c plasma stability was determined. Table 28 describes the results of the human plasma stability at 2 μM concentration and anti-coagulant K2-EDTA from 10 to 120 min. Table 29 describes the results of the cynomolgus monkey plasma stability at 2 μM concentration and anti-coagulant K2-EDTA. Table 30 describes the results of the beagle dog plasma stability at 2 μM concentration and anti-coagulant K2-EDTA. Table 31 describes the results of the wistar hannover rat plasma stability at 2 μM concentration and anti-coagulant K2-EDTA. Table 32 describes the results of the balb/c plasma stability at 2 μM concentration and anti-coagulant K2-EDTA.

[11] = Plasma stability, human plasma (K2EDTA); format: in vitro ADME
Protocol: as §1, §2, §3, §4, §5

[12] = Plasma stability, cynomolgus monkey plasma (K2-EDTA); format: in vitro ADME
Protocol: as §1, §2, §3, §4, §5

[13] = Plasma stability, rat plasma (Wistar Han / wistar hannover; Table 5 head SD Rat); format: in vitro ADME; details: Wistar Hannover, rat, plasma, pH 7.4
Protocol: as §1, §2, §3, §4, §5

[14] = Plasma stability, mouse plasma (Balb/c; Table 5 head CD-1 Mouse); format: in vitro ADME; details: 2 μM
[15] = as above; format: in vitro ADME; details: BALB/c, mouse, plasma, pH 7.4
Protocol: as §1, §2, §3, §4, §5

[16] = biological target: T1, CYP2C8 (Homo sapiens, UniProt P10632); test: in vitro; details: pooled liver microsomes, pH 7.4, probe amodiaquine
T1 sequence (P10632 1-490): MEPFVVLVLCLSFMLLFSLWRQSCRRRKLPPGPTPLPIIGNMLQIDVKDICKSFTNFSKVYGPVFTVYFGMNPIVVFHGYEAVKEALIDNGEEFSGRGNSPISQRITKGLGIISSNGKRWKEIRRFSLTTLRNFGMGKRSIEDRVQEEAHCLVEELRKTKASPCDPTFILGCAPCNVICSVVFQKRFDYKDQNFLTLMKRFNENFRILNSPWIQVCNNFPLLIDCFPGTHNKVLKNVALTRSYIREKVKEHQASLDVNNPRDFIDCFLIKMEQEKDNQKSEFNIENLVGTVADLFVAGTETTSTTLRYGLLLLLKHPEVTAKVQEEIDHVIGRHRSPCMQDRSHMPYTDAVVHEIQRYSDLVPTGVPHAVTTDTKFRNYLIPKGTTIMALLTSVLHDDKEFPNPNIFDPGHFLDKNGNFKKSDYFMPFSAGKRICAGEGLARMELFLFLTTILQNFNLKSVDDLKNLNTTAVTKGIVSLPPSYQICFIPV

[17] = system: Caco-2 cells
[18] = in vitro; details: human

CYP2C19, sequence (P33261 whole entry): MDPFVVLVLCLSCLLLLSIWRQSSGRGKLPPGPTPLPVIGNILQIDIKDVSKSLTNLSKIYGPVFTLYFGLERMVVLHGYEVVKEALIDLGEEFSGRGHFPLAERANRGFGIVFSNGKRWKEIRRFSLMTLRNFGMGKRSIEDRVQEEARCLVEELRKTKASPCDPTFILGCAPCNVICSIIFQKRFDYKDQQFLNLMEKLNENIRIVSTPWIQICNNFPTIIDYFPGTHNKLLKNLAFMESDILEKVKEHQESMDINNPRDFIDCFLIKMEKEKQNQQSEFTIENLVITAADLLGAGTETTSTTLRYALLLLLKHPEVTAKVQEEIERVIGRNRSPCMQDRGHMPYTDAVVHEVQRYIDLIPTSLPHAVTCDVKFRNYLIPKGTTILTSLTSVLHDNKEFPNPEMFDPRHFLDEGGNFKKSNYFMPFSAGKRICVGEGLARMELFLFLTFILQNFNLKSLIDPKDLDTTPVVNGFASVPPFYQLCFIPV

Compound: CNS(=O)(=O)Nc1nccc(Cc2c(C)c3ccc(Oc4ncccn4)cc3oc2=O)c1F [VS-6766]
mean terminal half-life [1]: 53.6 h

Compound: COc1ccc2[nH]c([S+]([O-])Cc3ncc(C)c(OC)c3C)nc2c1 (stereo not shown) [Omeprazole, reference compound]
inhibition at 30 min, 10 µM [2]: 60.7%

Compound: CNS(=O)(=O)Nc1cccc(Cc2c(CN3CCC3)c3cc(Cl)c(OC(=O)N(C)C)cc3oc2=O)c1F [Compound 19]
PAMPA (pH = 7.4; Papp 10^−6 cm/s) [3]: 51 10^−6 cm/s | eLogD (lipophilicity; pH = 7.4) [4]: 2.9 | A549-CRAF BP 100 nM, 2 h [5]: 51.9 | Human Clint [6]: 37 µL/min/mg | Human Microsome (t1/2 min) [6]: 0.633 h | Mouse Clint [7]: 26 µL/min/mg | Mouse Microsome (t1/2 min) [7]: 0.883 h | A549-pERK (10 nM, 2 h) ([8]; 10 nM, 2 h, phospho- to total protein ratio normalized to DMSO control (Table 9)): 59.9 | IC50 ([8]; A549, 12-point dose): 40 to 50 nM | Kinetic Solubility (PBS pH = 7.4; 4 hr) [9]: >80 uM

Compound: CC(C)[N+](C)(CCOC(=O)C1c2ccccc2Oc2ccccc21)C(C)C [Propantheline, reference compound]
Beagle Dog (% Reamining @2 hour) ([10]; beagle, dog, 2 h, 2 μM, pH 7.4): 58.4% | % Remaining at T120 ([10]; beagle, dog, plasma, 2 h, 2 μM, pH 7.4): 71.0% | half-life at 2 μM ([10]; beagle, dog, plasma, pH 7.4): 4.87 h | Human (% Reamining @2 hour) ([11]; human, 2 h, 2 μM, pH 7.4): 5.7% | % Remaining at T120 ([11]; human, plasma, 2 h, 2 μM, pH 7.4): 20.8% | half-life at 2 μM ([11]; human, plasma, pH 7.4): 0.943 h | % Remaining at T120 ([12]; 2 μM, anti-coagulant K2-EDTA, 120 min): 84.6% | half-life at 2 μM ([12]; plasma (K2EDTA), pH 7.4, anti-coagulant K2-EDTA): 7.5 h | % Remaining at T120 ([13]; 2 h, 2 μM): 115.2% | half-life at 2 μM [13]: > 2 h | CD-1 Mouse (% Reamining @2 hour) ([14]; CD-1, mouse, 2 h, pH 7.4): 27.1% | % Remaining at T120 ([15]; 2 h, 2 μM): 37.3% | half-life at 2 μM [15]: 1.68 h

Compound: CC[C@H](C)C(=O)O[C@H]1C[C@@H](C)C=C2C=C[C@H](C)[C@H](CC[C@@H]3C[C@@H](O)CC(=O)O3)[C@H]21 [Lovastatin, reference compound]
Beagle Dog (% Reamining @2 hour) ([10]; 2 μM, plasma, 2 hour): 94.1% | Human (% Reamining @2 hour) ([11]; 2 μM, plasma, 2 hour): 81.8% | CD-1 Mouse (% Reamining @2 hour) ([14]; plasma, 2 hour): 0.6%

Second part, the compound after the results:

inhibition at 30 min, 10 µM [16]: 88.3%
Compound: O=c1c(O)c(-c2ccc(O)c(O)c2)oc2cc(O)cc(O)c12 [Quercetin, reference compound]

A − B Permeability Ranking [17]: Higher | A-B Permeability Ranking [17]: High | efflux ratio at 2 h, 10 μM ([18]; Caco-2, Mean (B-A/A-B) (Efflux Ratio)): 0.726 | efflux ratio at 2 h, 10 μM ([18]; Caco-2, Mean Efflux Ratio): 0.513 | Papp A→B at 2 h, 10 μM ([18]; Caco-2, Mean Papp A − B (10^−6 cm/s)): 40.5 ×10⁻⁶ cm/s | Papp A→B at 2 h, 10 μM ([18]; Caco-2, Mean Papp A-B (10^-6 cm/s)): 36.6 ×10⁻⁶ cm/s | Papp B→A at 2 h, 10 μM ([18]; Caco-2, Mean Papp B − A (10^−6 cm/s)): 20.8 ×10⁻⁶ cm/s | Papp B→A at 2 h, 10 μM ([18]; Caco-2, Mean Papp B-A (10^-6 cm/s)): 26.6 ×10⁻⁶ cm/s
Compound: CC(=O)CC(c1ccccc1)c1c(O)c2ccccc2oc1=O (stereo not shown) [Warfarin]
